Results from patent publication US5538981A, “Tetrahydro-pyrido-indole” (Eli Lilly and Company, priority 1995, dated 1996).
Where a name gives a salt, the structure may show the parent alone.

Key:
5-HT2 receptor = target: T1, 5-HT2 receptor (Rattus norvegicus, UniProt P14842); experiment: 5-HT2 receptor radioligand binding displacement assay ([3H]ketanserin, cerebral cortex); design: species or system rat (male Sprague-Dawley); conditions: tritiated ketanserin 1 nM, pH 7.4, 37° C., 30 min, values over 100 nM accumulated before concentration range was reduced to 0.1 to 100 nM
T1 construct: The reaction was initiated by the addition of the resuspended rat cerebral cortex tissue; tissue Harlan Industries, Cumberland, Ind; (animals); host or cells: cerebral cortex of male Sprague-Dawley rats, washed membranes
T1 sequence (P14842 whole entry): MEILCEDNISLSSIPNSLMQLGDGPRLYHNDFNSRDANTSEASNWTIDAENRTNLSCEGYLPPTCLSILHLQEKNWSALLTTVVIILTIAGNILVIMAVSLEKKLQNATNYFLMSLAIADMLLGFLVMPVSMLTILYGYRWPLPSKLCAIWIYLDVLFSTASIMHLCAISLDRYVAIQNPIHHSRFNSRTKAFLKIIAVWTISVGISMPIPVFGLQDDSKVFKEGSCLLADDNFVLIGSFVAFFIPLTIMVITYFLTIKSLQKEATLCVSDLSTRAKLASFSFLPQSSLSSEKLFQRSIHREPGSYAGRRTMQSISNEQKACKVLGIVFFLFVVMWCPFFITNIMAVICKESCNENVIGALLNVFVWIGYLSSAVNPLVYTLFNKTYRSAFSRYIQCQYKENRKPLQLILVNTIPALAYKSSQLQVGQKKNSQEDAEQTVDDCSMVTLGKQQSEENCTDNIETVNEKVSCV
Experimental: The assays were conducted by the following procedures.
5-HT1c selective compounds can be identified using the following biological assay procedures. Compounds having a selective affinity for the 5-HT1c receptor have a low IC50 in the 5-HT1c receptor assay and a higher IC50 in the 5-HT2 receptor assay.
I. Biological Reagent Preparation.
Beef brain was removed immediately after slaughter, and choroid plexus were dissected over ice. Male Sprague-Dawley rats weighing 125-150 g (Harlan Industries, Cumberland, Ind.) were killed by decapitation. The brain of each was immediately removed and the cerebral cortex was dissected over ice. Tissues were homogenized in 9 volumes of 0.32 mol/L sucrose and centrifuged at 1,000×g for 10 minutes. The supernatant was centrifuged at 17,000×g for 20 minutes. The pellet was suspended in 100 volumes of 50 mM Tris-HCL (pH7.4), incubated at 37° C. for 10 minutes and centrifuged at 50,000×g for 10 minutes, and the process was repeated three times. The final pellets were frozen at -70° C. and used within 2 weeks. Pellets were rehydrated with physiological buffer prior to use.
Radioligand binding assays for 5-HT1c and 5-HT2 receptors were conducted according to described methods. The assays can be conducted as described by Hoyer D., Functional correlates of serotonin 5-HT1 recognition sites, J. Receptor Res 8, 59-81 (1988) and Hoyer D., Engel G., Kalkman HO Molecular pharmacology of 5-HT1 and 5-HT2 recognition sires in rat and pig brain membranes: Radio-ligand binding studies with [^3 H]5-HT, [^3 H]8-OH-DPAT, (-) [^125 I] iodocyanopindolol, [^3 H]mesulergine and [^3 H]ketanserin, Eur. J. Pharmacol. 118, 13-23 (1985).
For 5-HT2 receptor assays increasing concentrations of experimental compound, 50 mM Tris HCl buffer pH [7.4], and tritiated ketanserin (1 nM) (^3 H ligand) were combined in polystyrene tubes at room temperature. The reaction was initiated by the addition of the resuspended rat cerebral cortex tissue which had been preincubated at 37° C. for 20 minutes. The reaction mixture was incubated in a 37° C. water bath for 30 minutes.
The above assays were modified after a number of compounds had been screened to accomodate the unexpectedly high potency of the compounds of this invention in the 5-HT1c assay. The concentration range of the experimental compound in the assays was changed from [0.1 to 1000 (nM)] to [0.1 to 100 (nM)] to optimize the use of reagents and analysis time.
The reactions were terminated by rapid filtration, (Brandel Cell Harvestor), through Whatman GF/B glass filters that had been presoaked in Tris buffer pH [7.4]. The filters were then washed 2 times with 5 ml of ice cold Tris buffer pH [7.4]. Washed filters were placed in scintillation vials and 10 ml RedySolv, (Brandel), was added and samples were counted in a Searle D-300 beta counter. Means and standard error statistics were calculated for triplicate experimental determinations in certain cases. Mean values were obtained from three or more separate determinations. The incubation time for the reaction mixture was […] at 37° C.
The results of the evaluation of certain compounds of the present invention in the 5-HT1c and 5-HT2 binding assays are set forth below in Table II.

5-HT1c receptor [1] = target: T2, 5-HT1c receptor (Bos taurus, UniProt A0AAA9SBU1); experiment: 5-HT1c receptor radioligand binding displacement assay ([3H]mesulergine, choroid plexus); design: species or system beef; conditions: beef choroid plexus; tritiated mesulergine 2.0 nM; pH 7.4; 37° C., 15 min
T2 construct: natural pool of RNA-edited forms
T2 sequence (A0AAA9SBU1 33-457): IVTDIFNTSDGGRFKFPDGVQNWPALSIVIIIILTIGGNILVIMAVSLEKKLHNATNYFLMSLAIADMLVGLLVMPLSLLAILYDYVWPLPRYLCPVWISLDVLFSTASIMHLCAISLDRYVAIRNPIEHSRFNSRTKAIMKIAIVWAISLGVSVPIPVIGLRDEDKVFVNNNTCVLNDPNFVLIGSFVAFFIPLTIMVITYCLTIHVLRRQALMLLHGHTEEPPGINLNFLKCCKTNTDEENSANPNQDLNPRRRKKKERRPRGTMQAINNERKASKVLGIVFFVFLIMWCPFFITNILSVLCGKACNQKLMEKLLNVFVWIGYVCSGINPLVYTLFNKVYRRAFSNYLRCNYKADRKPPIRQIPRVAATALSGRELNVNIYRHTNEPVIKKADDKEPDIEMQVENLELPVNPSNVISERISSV
Experimental: (§1) Beef brain was removed immediately after slaughter, and choroid plexus were dissected over ice. […] The brain of each was immediately removed and the cerebral cortex was dissected over ice. Tissues were homogenized in 9 volumes of 0.32 mol/L sucrose and centrifuged at 1,000×g for 10 minutes. The supernatant was centrifuged at 17,000×g for 20 minutes. The pellet was suspended in 100 volumes of 50 mM Tris-HCL (pH7.4), incubated at 37° C. for 10 minutes and centrifuged at 50,000×g for 10 minutes, and the process was repeated three times. The final pellets were frozen at -70° C. and used within 2 weeks. Pellets were rehydrated with physiological buffer prior to use.
(§2) For 5-HT1c receptor assays increasing concentrations of experimental compound, 50 mM Tris HCl buffer pH[7.4], and tritiated mesulergine (2.0 nM) (^3 H ligand) were combined in polystyrene tubes at room temperature. The reaction was initiated by the addition of the resuspended choroid plexus tissue which had been preincubated at 37° C. for 20 minutes. The reaction mixture was incubated in a 37° C. water bath for 15 minutes.
(§3) The reactions were terminated by rapid filtration, (Brandel Cell Harvestor), through Whatman GF/B glass filters that had been presoaked in Tris buffer pH [7.4]. The filters were then washed 2 times with 5 ml of ice cold Tris buffer pH [7.4]. Washed filters were placed in scintillation vials and 10 ml RedySolv, (Brandel), was added and samples were counted in a Searle D-300 beta counter. Means and standard error statistics were calculated for triplicate experimental determinations in certain cases. Mean values were obtained from three or more separate determinations. The incubation time for the reaction mixture was 15 minutes at 37° C.

5-HT1c receptor [2] = experiment: as above; design: species or system beef; conditions: 5-HT1c versus 5-HT2, from Table II
Experimental: as §1, §2, §3

Row | SMILES | IC50 (5-HT2 receptor) [nM] | IC50 (5-HT1c receptor [1]) [nM] | 5-HT1c selectivity (low IC50 in 5-HT1c assay, higher IC50 in 5-HT2 assay) (5-HT1c receptor [2])
1 | COc1ccc(CC2NCCc3c2[nH]c2ccc(C)cc32)c2ccccc12 (racemic) [Example 1, (±) 6-methyl-1-(1-(4-methoxynaphthalenyl)methyl)-1,2,3,4-tetrahydro-9H-pyrido[3,4-b]indole hydrochloride] | 56.1 | 6.4 | 
2 | Cc1ccc2[nH]c3c(c2c1)CCNC3C(C)c1cccc2ccccc12 (racemic) [Example 3, (±) 6-methyl-1-(1-naphthalenyl-1-ethyl)-1,2,3,4-tetrahydro-9H-pyrido[3,4-b]indole] | > 100 | 6 | 
3 | CC(C)c1ccc2[nH]c3c(c2c1)CCNC3C(C)c1cccc2ccccc12 (racemic) [Example 4, hydrochloride] | > 100 | 14 | 
4 | Cc1ccc2[nH]c3c(c2c1)CCNC3Cc1cccc2ccccc12 (racemic) [Example 5, (±) 6-methyl-1-(1-naphthalenylmethyl)-1,2,3,4-tetrahydro-9H-pyrido[3,4-b]indole hydrochloride] | 267 | 30 | 
5 | Brc1cccc2c3c([nH]c12)C(Cc1cccc2ccccc12)NCC3 (racemic) [Example 6, (±) 8-bromo-1-(1-naphthalenylmethyl)-1,2,3,4-tetrahydro-9H-pyrido[3,4-b]indolehydrochloride] | 40 | 13.2 | 
6 | Cc1cc(Br)c2[nH]c3c(c2c1)CCNC3Cc1cccc2ccccc12 (racemic) [Example 7, (±) 6-methyl-8-bromo-1-(1-naphthalenylmethyl)-1,2,3,4-tetrahydro-9H-pyrido[3,4-b]indole] | 247 | 60 | 
7 | COc1cccc2c3c([nH]c12)C(Cc1cccc2ccccc12)NCC3 (racemic) [Example 8, (±) 8-methoxy-1-(1-naphthalenylmethyl)-1,2,3,4-tetrahydro-9H-pyrido[3,4-b]indole] | 65 | 63 | 
8 | Brc1ccc2[nH]c3c(c2c1)CCNC3Cc1cccc2ccccc12 (racemic) [Example 9, (±) 6-bromo-1-(1-naphthalenylmethyl)-1,2,3,4-tetrahydro-9H-pyrido[3,4-b]indole] | 87 | 27 | 
9 | Cc1ccc2c3c([nH]c2c1Br)C(Cc1cccc2ccccc12)NCC3 (racemic) [Example 10, (±) 7-methyl-8-bromo-1-(1-naphthalenylmethyl)-1,2,3,4-tetrahydro-9H-pyrido[3,4-b]indole hydrochloride] | 142 | 44 | 
10 | CC(C)(C)c1ccc2[nH]c3c(c2c1)CCNC3Cc1cccc2ccccc12 (racemic) [Example 15, (±) 6-(1,1-dimethylethyl)-1,2,3,4-tetrahydro-1-(1-naphthalenylmethyl)-9H-pyrido[3,4b]indole] | > 100 | 11 | particularly 5-HT1c selective
11 | CC(C)c1ccc2[nH]c3c(c2c1)CCNC3Cc1cccc2ccccc12 (racemic) [Example 16, (±) 6-(1-methylethyl)-1,2,3,4-tetrahydro-1-(1-naphthalenylmethyl)-9H-pyrido[3,4b]indole] | > 100 | 9 | particularly 5-HT1c selective

The next lines start with results.

Row | IC50 (5-HT2 receptor) [nM] | IC50 (5-HT1c receptor [1]) [nM] | SMILES | 5-HT1c selectivity (low IC50 in 5-HT1c assay, higher IC50 in 5-HT2 assay) (5-HT1c receptor [2])
12 | > 100 | 189 | c1ccc2c(CC3NCCc4c3[nH]c3ccc(C5CCCCC5)cc43)cccc2c1 (racemic) [Example 11, (±) 6-cyclohexyl-1-(1-naphthalenylmethyl)-1,2,3,4-tetrahydro-9H-pyrido[3,4-b]indole hydrochloride] | 
13 | > 100 | 54 | Cc1ccc2[nH]c3c(c2c1)CCN(C)C3Cc1cccc2ccccc12 (racemic) [Example 12, (±) 2,6-dimethyl-1-(1-naphthalenylmethyl)-1,2,3,4-tetrahydro-9H-pyrido[3,4-b]indole hydrochloride] | 
14 | > 100 | 16 | Cc1ccc2[nH]c3c(c2c1F)CCNC3Cc1cccc2ccccc12 (racemic) [Example 13, (±) 5-fluoro-6-methyl-1-(1-naphthalenylmethyl)-1,2,3,4-tetrahydro-9H-pyrido[3,4-b]indole] | 
15 | > 100 | 61 | c1ccc2c(CC3NCCc4c3[nH]c3c4ccc4ccccc43)cccc2c1 (racemic) [Example 14, (±) 7,8,9,10-tetrahydro-10-(1-naphthalenylmethyl)-11H-benzo[g]pyrido[3,4-b]indole] | 
16 | > 100 | 23 | Cc1ccc2c(c1)c1c(n2C)C(Cc2cccc3ccccc23)NCC1 (racemic) [Example 17, (±) 6,9-dimethyl-1,2,3,4-tetrahydro-1-(1-naphthalenylmethyl)-9H-pyrido[3,4-b]indole hydrochloride] | 
17 | 108 | < 100 | Cc1ccc2[nH]c3c(c2c1)CCN[C@H]3Cc1cccc2ccccc12 [Example 18, (-)-(S)-6-methyl-1,2,3,4-tetrahydro-1-(1-naphthalenylmethyl)-9H-pyrido[3,4-b]indole hydrochloride] | 
